In one assay the target is human mTOR (GST-mTOR) (Homo sapiens (Human), UniProt P42345). Kind of assay: Binding assay mTor (Lanthascreen kinase binding assay). As to conditions: Tracer-314. An excerpt: Catalytically active human PI3Kα, PI3Kβ, PI3Kδ, and mTOR were cloned, expressed and purtified as described (Maira S M, Stauffer F, Brueggen J, Furet P, Schnell C, Fritsch C, Brachmann S, Chène P, de Pover A, Schoemaker K, Fabbro D, Gabriel D, Simonen M, Murphy L, Finan P, Sellers W, Garcia-Echeverria C (2008), Mol Cancer Ther. 7:1851-63 and Maira S M, Pecchi S, Brueggen J, Huh K, Schnell C, Fritsch C, Nagel T, Wiesmann M, Brachmann S, Dorsch M, Chène P, Schoemaker K, De Pover A, Menezes D, Fabbro D, Sellers W, Garcia-Echeverria C, Voliva CF (2011), Mol. Cancer Ther. accepted).
TR-FRET assays for protein kinases uses a long-lifetime lanthanide Terbium or Europium chelates as the donor species which overcome interference by compound autofluorescence or light scatter from precipitated compounds, by introducing a delay after excitation by a flashlamp excitation source. Results are often expressed as a ratio of the intensities of the acceptor and donor fluorophores. The ratiometric nature of such a value corrects for differences in assay volumes between wells, as well as corrects for quenching effects due to colored compounds.
Binding Assays are based on the binding and displacement of an Alexa Fluor® 647-labeled, ATP-competitive kinase inhibitors to the kinase of interest. Invitrogen's “Kinase Tracers” have been developed to address a wide range of kinase targets and are based on ATP-competitive kinase inhibitors, making them suitable for detection of any compounds that bind to the ATP site or to an allosteric site altering the conformation of the ATP site. Inhibitors that bind the ATP site include both Type I kinase inhibitors, which bind solely to the ATP site, and Type II inhibitors (e.g., Gleevec®/Imatinib, Sorafenib, BIRB-796), which bind to both the ATP site and a hydrophobic site exposed in the DFG-out (non-active) conformation. […] The sole exception was a substrate-competitive compound, and thus not a true allosteric inhibitor.
In contrast to most fluorescence-based kinase activity assays, LanthaScreen® Eu^3+ Kinase Binding Assays can be read continuously, which facilitates evaluation of compounds with slow binding kinetics. Also, unlike most activity assays, binding assays can be performed using either active or non-activated kinase preparations, which enables characterization of compounds that bind preferentially to non-activated kinases, such as Gleevec®/imatinib and some allosteric inhibitors.
In the Lanthascreen™ kinase binding assay, the donor (Eu^3+-anti-GST antibody) is excited at 340 nm and will transfer its energy to the acceptor (Alexa Fluor® 647-labeled ATP-competitive kinase inhibitor=Tracer-314). The emission from the Tracer-314 (Alexa Fluor® 647 inhibitor) can be monitored with a filter centered at 665 nm because it is located between the emission peaks of the donor, which is measured at 615/620 nm. The binding of both, the Tracer-314 and Eu^3+-anti-GST antibody, to the kinase results in a high degree of FRET from the Eu^3+-donor fluorophore to the Alexa-Fluor® 647-acceptor fluorophore on the Tracer-314. Binding of an inhibitor to the kinase competes for binding with the tracer, resulting in a loss of FRET.
50 nL of compound dilutions were dispensed onto white 384-well small volume polystyrene plate as described in section 2.2. Then 5 μL of GST-mTOR and Europium-anti-GST antibody followed by 5 μL of tracer-314 (final assay volume 10 μL) are incubated at RT. The standard reaction buffer for the Lanthascreen™ kinase binding assay contained 50 mM HEPES pH 7.5, 5 mM MgCl2, 1 mM EGTA, 0.01% Pluronic F-127. Plates are read 60 mins later in a Synergy2 reader using an integration time of 0.2 microseconds and a delay of 0.1 microseconds.
To calculate the emission ratio, the signal emitted at 665 nm from the acceptor (Alexa Fluor® 647-labeled Tracer-314) is divided by the signal emitted at 620 nm from the donor (Eu^3+ anti-GST antibody) […]

The next assay has as its target human PI3Kδ (Homo sapiens (Human), UniProt O00329). Kind of assay: Biochemical assay PI3Kdelta (Adapta TR-FRET). The following applies: read-out: PI3Kd/IC50. An excerpt:
Catalytically active human PI3Kα, PI3Kβ, PI3Kδ, and mTOR were cloned, expressed and purtified as described ([…], Stauffer F, Brueggen J, Furet […], de Pover A, Schoemaker K, Fabbro D, Gabriel D, Simonen M, Murphy […], Garcia-Echeverria C (2008), Mol Cancer Ther. 7:1851-63 and […], Huh […], Schoemaker K, De Pover […], Garcia-Echeverria C, Voliva CF (2011), Mol. Cancer Ther. accepted). The TR-FRET AdaptaTM Universal Kinase Assay Kit was purchased from Invitrogen Corporation (Carlsbad/CA, USA) (Cat. No. PV5099). The kit contains the following reagents: Adapta Eu-anti-ADP Antibody (Europium labeled anti-ADP antibody in HEPES buffered saline, Cat. No. PV5097), Alexa Fluor® 647-labeled ADP tracer (Alexa Fluor® 647-labeled ADP tracer in HEPES buffered saline, Cat. No. PV5098), proprietary TR-FRET dilution buffer pH 7.5 (Cat. No. PV3574). PIK3CD substrate Phosphatidylinositol was obtained from Invitrogen (vesicules consisting of 2 mM PI in 50 mM HEPES pH7.5; Cat. No. PV5371). […] TR-FRET assays for protein kinases use a long-lifetime lanthanide Terbium or Europium chelates as the donor species which overcome interference from compound autofluorescence or light scatter from precipitated compounds, by introducing a delay after excitation by a flashlamp excitation source. Results are often expressed as a ratio of the intensities of the acceptor and donor fluorophores. The ratiometric nature of such a value corrects for differences in assay volumes between wells, as well as corrects for quenching effects due to colored compounds. The AdaptaTM assay can be divided into two phases: a kinase reaction phase and an ADP detection phase. In the kinase reaction phase, all kinase reaction components are added to the well and the reaction is allowed to incubate for a set period of time specific for each kinase. After the reaction, a detection solution of Eu-labeled anti-ADP antibody, Alexa Fluor® 647-labeled ADP tracer, and EDTA (to stop the kinase reaction) are added to the assay well. ADP formed by the kinase reaction will displace the Alexa Fluor® 647-labeled ADP tracer from the antibody, resulting in a decrease in TR-FRET signal. In the presence of an inhibitor, the amount of ADP formed by the kinase reaction is reduced, and the resulting intact antibody-tracer interaction maintains a high TR-FRET signal. In the AdaptaTM assay, the donor (Europium-anti-ADP antibody) is excited at 340 nm and will transfer its energy to the acceptor (Alexa Fluor® 647-labeled ADP tracer). The emission from the Alexa Fluor® 647 can be monitored with a filter centered at 665 nm because it is located between the emission peaks of the donor, which is measured at 615/620 nm. […] Reactions were stopped with 5 μL of a mixture of EDTA containing the Eu-labeled anti-ADP antibody and the Alexa Fluor® 647-labeled ADP tracer in TR-FRET dilution buffer (proprietary to IVG). […] Data are analyzed using Excel fit software or Graphpad Prism. EC50 values were derived by fitting a sigmoidal dose-response curve to a plot of assay readout over inhibitor concentration. All fits were performed with the program XLfit4 (ID Business Solutions, Guildford, UK). […] All fits were performed with the program XLfit4 (ID Business Solutions, Guildford, UK).

Sequence of human PI3Kδ (O00329 2-1044): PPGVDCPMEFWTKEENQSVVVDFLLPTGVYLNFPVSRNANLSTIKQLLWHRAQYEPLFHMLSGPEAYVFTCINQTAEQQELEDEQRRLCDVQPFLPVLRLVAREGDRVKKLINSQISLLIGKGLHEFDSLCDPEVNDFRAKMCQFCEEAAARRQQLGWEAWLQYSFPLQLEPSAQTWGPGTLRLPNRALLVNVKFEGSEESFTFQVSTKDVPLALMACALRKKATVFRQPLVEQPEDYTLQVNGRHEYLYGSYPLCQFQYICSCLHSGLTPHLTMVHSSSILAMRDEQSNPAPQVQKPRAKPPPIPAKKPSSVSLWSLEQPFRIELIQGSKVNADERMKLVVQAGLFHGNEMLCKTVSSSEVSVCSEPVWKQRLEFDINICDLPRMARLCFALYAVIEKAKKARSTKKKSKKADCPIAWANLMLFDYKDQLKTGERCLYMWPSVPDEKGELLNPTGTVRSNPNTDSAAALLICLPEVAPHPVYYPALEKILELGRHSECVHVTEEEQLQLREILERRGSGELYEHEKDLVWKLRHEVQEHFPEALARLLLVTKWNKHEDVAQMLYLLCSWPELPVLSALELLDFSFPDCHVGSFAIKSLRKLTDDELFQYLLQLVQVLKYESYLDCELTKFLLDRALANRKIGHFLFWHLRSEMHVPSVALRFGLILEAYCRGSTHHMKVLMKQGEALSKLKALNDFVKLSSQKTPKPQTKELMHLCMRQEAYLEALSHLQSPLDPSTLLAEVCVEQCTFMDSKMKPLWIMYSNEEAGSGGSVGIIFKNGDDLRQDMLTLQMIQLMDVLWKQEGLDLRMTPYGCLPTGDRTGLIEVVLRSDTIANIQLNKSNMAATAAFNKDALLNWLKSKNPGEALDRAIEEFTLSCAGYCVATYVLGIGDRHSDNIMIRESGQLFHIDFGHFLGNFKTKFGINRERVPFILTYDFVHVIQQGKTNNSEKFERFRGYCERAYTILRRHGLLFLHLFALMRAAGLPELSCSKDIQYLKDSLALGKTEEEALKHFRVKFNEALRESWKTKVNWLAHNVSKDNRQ

As for `CC[C@H]1[C@H](c2ccc(OC)cc2)OC(=O)N1c1cc(-c2cnc(N)nc2C(F)(F)F)nc(N2CCOCC2)n1` (relative stereo) [Example 2, (4S*,5S*)-3-(2′-amino-2-morpholino-4′-(trifluoromethyl)-[4,5′-bipyrimidin]-6-yl)-4-ethyl-5-(4-methoxyphenyl)oxazolidin-2-one], on human mTOR (GST-mTOR), the IC50 worked out at 2800 nM.
In the case of `C[C@H]1[C@H](c2nccs2)OC(=O)N1c1cc(-c2cnc(N)nc2C(F)(F)F)nc(N2CCOCC2)n1` [Example 1, (4S,5R)-3-(2′-Amino-2-morpholin-4-yl-4′-trifluoromethyl-[4,5′]bipyrimidinyl-6-yl)-4-methyl-5-thiazol-2-yl-oxazolidin-2-one], the IC50 on human mTOR (GST-mTOR) was determined as 251 nM.
As to `COc1ccc([C@@H]2OC(=O)N(c3cc(-c4cnc(N)nc4C(F)(F)F)nc(N4CCOCC4)n3)[C@H]2CO)cc1` [Example 3, (4S,5S)-3-(2′-Amino-2-morpholino-4′-(trifluoromethyl)-[4,5′-bipyrimidin]-6-yl)-4-(hydroxymethyl)-5-(4-methoxyphenyl)oxazolidin-2-one], the IC50 on human PI3Kδ was determined as 4 nM; at human mTOR (GST-mTOR), 850 nM.
In the case of `C[C@H]1[C@H](c2ccccc2)OC(=O)N1c1cc(-c2cnc(N)nc2C(F)(F)F)nc(N2CCOCC2)n1` [Example 5], the results for the IC50 at human PI3Kδ and at human mTOR (GST-mTOR) were 147 nM and 2250 nM, respectively.
The matching figures for `CC[C@H]1[C@H](c2nccs2)OC(=O)N1c1cc(-c2cnc(N)nc2C(F)(F)F)nc(N2CCOCC2)n1` [Example 7]: 41 nM and 2700 nM.
As for `CCC1C(c2cccnc2)OC(=O)N1c1cc(-c2cnc(N)nc2C(F)(F)F)nc(N2CCOCC2)n1` (stereo not drawn) [Example 8], the IC50 at human mTOR (GST-mTOR) was 960 nM.
On to `CC1C(c2cccnc2)OC(=O)N1c1cc(-c2cnc(N)nc2C(F)(F)F)nc(N2CCOCC2)n1` (stereo not drawn) [Example 9], for which the IC50 at human PI3Kδ was found to be 10 nM.
On to `Nc1ncc(-c2cc(N3C(=O)O[C@@H](c4ccccc4)[C@@H]3CO)nc(N3CCOCC3)n2)c(C(F)(F)F)n1` [Example 10], for which the IC50 at human PI3Kδ worked out at 31 nM; on human mTOR (GST-mTOR) it was 1010 nM.
On to `C[C@H]1[C@@H](c2nccs2)OC(=O)N1c1cc(-c2cnc(N)nc2C(F)(F)F)nc(N2CCOCC2)n1` [Example 11], for which, at human mTOR (GST-mTOR), the IC50 turned out to be 870 nM.
For `COCCOc1ccc([C@@H]2OC(=O)N(c3cc(-c4cnc(N)nc4C(F)(F)F)nc(N4CCOCC4)n3)[C@H]2CO)cc1` [Example 12], the IC50 amounted to 4 nM at human PI3Kδ and 750 nM on human mTOR (GST-mTOR).
Consider `Nc1ncc(-c2cc(N3C(=O)O[C@@H](c4ccc(OCCO)cc4)[C@@H]3CO)nc(N3CCOCC3)n2)c(C(F)(F)F)n1` [Example 13], for which the IC50 on human PI3Kδ turned out to be 3 nM; on human mTOR (GST-mTOR), 230 nM.
In the case of `Nc1ncc(-c2cc(N3C(=O)O[C@@H](c4ccc(OCCCO)cc4)[C@@H]3CO)nc(N3CCOCC3)n2)c(C(F)(F)F)n1` [Example 14], the IC50 at human mTOR (GST-mTOR) was 490 nM.

The values above are taken from patent US10202371B2, “Oxazolidin-2-one-pyrimidine derivatives and the use thereof as phosphatidylinositol-3-kinase inhibitors” (Novartis AG, priority 2012, dated 2019).
